Where a name gives a salt, the structure may show the parent alone.
Molecular target: Autotaxin (Homo sapiens (Human), UniProt Q13822)
Test: Autotaxin LPC Cascade Assay
Type: biochemical
Settings: Autotaxin 5 nM, LPC 100 μM, choline oxidase/HRP/Ampliflu Red fluorescence read-out, 2% DMSO, RT; read-out: IC50 ATX Activity
Protocol: Autotaxin LPC Cascade Assay:
HA130 and Test Compounds:
Prepare a 1 mM stock of HA130 and a 3 mM stock of each compound in 100% DMSO. Perform a 1:3 serial dilution in DMSO (transfer 5 l of compound to 10 l of DMSO). Add 240 l of buffer to generate a top working concentration of 40 µM (HA130) and 120 µM (test compound) in 4% DMSO.
Ampliflu Red—Prepare a stock of 5 mM from 100 mM in 100% DMSO. Further dilute to a working concentration of 400 μM in buffer (8% DMSO).
Together with compound this yields a 2% DMSO final concentration.
Choline Oxidase/HRP—0.8 U/mL CO and 8 U/mL HRP.
Incubate for 10 mins at RT. Add 5 µl of LPC and incubate for 1 hr on the plate shaker. Prepare the CO/HRP and AR immediately prior to use. Add 2.5 l of CO/HRP and follow with 2.5 l AR. Note order of addition, CO/HRP mix before AR. Read fluorescence intensity (ex/em: 530/590 nm) kinetically for 30 min at RT on the Tecan M1000.

Going from `COc1cccc(N2C(=O)N(C)C(=O)C23CCN(C(=O)[C@H](NC(=O)c2cc(C(F)(F)F)ccc2F)C(C)C)CC3)c1` [Example 10, (R)-2-Fluoro-N-(1-(1-(3-methoxyphenyl)-3-methyl-2,4-dioxo-1,3,8-triazaspiro[4.5]decan-8-yl)-3-methyl-1-oxobutan-2-yl)-5-(trifluoromethyl)benzamide] to `CC(C)[C@@H](NC(=O)c1cc(C(F)(F)F)ccc1F)C(=O)N1CCC2(CC1)C(=O)N(C)C(=O)N2c1cccc(S(C)(=O)=O)c1` [Example 15, (R)-2-Fluoro-N-(3-methyl-1-(3-methyl-1-(3-(methylsulfonyl)phenyl)-2,4-dioxo-1,3,8-triazaspiro[4.5]decan-8-yl)-1-oxobutan-2-yl)-5-(trifluoromethyl)benzamide], the IC50 rises from under 500 nM to at least 1000 nM.

`CC(C)[C@@H](NC(=O)c1cc(C(F)(F)F)ccc1F)C(=O)N1CCC2(CC1)C(=O)N(C)C(=O)N2c1ccc2oc(=O)n(C)c2c1` [Example 11, (R)-2-Fluoro-N-(3-methyl-1-(3-methyl-1-(3-methyl-2-oxo-2,3-dihydrobenzo[d]oxazol-5-yl)-2,4-dioxo-1,3,8-triazaspiro[4.5]decan-8-yl)-1-oxobutan-2-yl)-5-(trifluoromethyl)benzamide] and `CC(C)[C@@H](NC(=O)c1cc(C(F)(F)F)ccc1F)C(=O)N1CCC2(CC1)C(=O)N(C)C(=O)N2c1ccc2oc(=O)[nH]c2c1` [Example 29, (R)-2-Fluoro-N-(3-methyl-1-(3-methyl-2,4-dioxo-1-(2-oxo-2,3-dihydrobenzo[d]oxazol-5-yl)-1,3,8-triazaspiro[4.5]decan-8-yl)-1-oxobutan-2-yl)-5-(trifluoromethyl)benzamide] cannot be ordered by IC50: at least 1000 nM for the first, 500 to 1000 nM for the second.

`CC(C)[C@@H](NC(=O)c1cc(C(F)(F)F)ccc1F)C(=O)N1CCC2(CC1)C(=O)N(C)C(=O)N2c1ccc2c(cnn2C)c1` [Example 12, (R)-2-Fluoro-N-(3-methyl-1-(3-methyl-1-(1-methyl-1H-indazol-5-yl)-2,4-dioxo-1,3,8-triazaspiro[4.5]decan-8-yl)-1-oxobutan-2-yl)-5-(trifluoromethyl)benzamide] and `CC(C)[C@@H](NC(=O)c1cc(C(F)(F)F)ccc1F)C(=O)N1CCC2(CC1)C(=O)N(C)C(=O)N2c1ccc2nn(C)cc2c1` [Example 13, (R)-2-Fluoro-N-(3-methyl-1-(3-methyl-1-(2-methyl-2H-indazol-5-yl)-2,4-dioxo-1,3,8-triazaspiro[4.5]decan-8-yl)-1-oxobutan-2-yl)-5-(trifluoromethyl)benzamide] cannot be ordered by IC50: under 500 nM for the first, under 500 nM for the second.

Compared with `CC(C)[C@@H](NC(=O)c1cc(C(F)(F)F)ccc1F)C(=O)N1CCC2(CC1)C(=O)N(C)C(=O)N2c1ccc2nccn2c1` [Example 14, (R)-2-Fluoro-N-(1-(1-(imidazo[1,2-a]pyridin-6-yl)-3-methyl-2,4-dioxo-1,3,8-triazaspiro[4.5]decan-8-yl)-3-methyl-1-oxobutan-2-yl)-5-(trifluoromethyl)benzamide trifluoroacetic Acid Salt], `CC(C)[C@@H](NC(=O)c1cc(C(F)(F)F)ccc1F)C(=O)N1CCC2(CC1)C(=O)N(C)C(=O)N2c1ccc(=O)n(C)c1` [Example 23, (R)-2-Fluoro-N-(3-methyl-1-(3-methyl-1-(1-methyl-6-oxo-1,6-dihydropyridin-3-yl)-2,4-dioxo-1,3,8-triazaspiro[4.5]decan-8-yl)-1-oxobutan-2-yl)-5-(trifluoromethyl)benzamide] is higher in IC50: under 500 nM for the first, 500 to 1000 nM for the second.

`CC(C)[C@@H](NC(=O)c1cc(C(F)(F)F)ccc1F)C(=O)N1CCC2(CC1)C(=O)N(C)C(=O)N2c1ccn(C)n1` [Example 16, (R)-2-Fluoro-N-(3-methyl-1-(3-methyl-1-(1-methyl-1H-pyrazol-3-yl)-2,4-dioxo-1,3,8-triazaspiro[4.5]decan-8-yl)-1-oxobutan-2-yl)-5-(trifluoromethyl)benzamide] and `CC(C)[C@@H](NC(=O)c1cc(C(F)(F)F)ccc1F)C(=O)N1CCC2(CC1)C(=O)N(C)C(=O)N2c1cnn(C)c1` [Example 17, (R)-2-Fluoro-N-(3-methyl-1-(3-methyl-1-(1-methyl-1H-pyrazol-4-yl)-2,4-dioxo-1,3,8-triazaspiro[4.5]decan-8-yl)-1-oxobutan-2-yl)-5-(trifluoromethyl)benzamide] cannot be ordered by IC50: at least 1000 nM for the first, at least 1000 nM for the second.

`CCc1ccc(F)c(C(=O)N[C@@H](C(=O)N2CCC3(CC2)C(=O)N(C)C(=O)N3c2ccc3cnc(C)n3c2)C(C)C)c1` [Example 18, (R)-5-Ethyl-2-fluoro-N-(3-methyl-1-(3-methyl-1-(3-methylimidazo[1,5-a]pyridin-6-yl)-2,4-dioxo-1,3,8-triazaspiro[4.5]decan-8-yl)-1-oxobutan-2-yl)benzamide] and `CCc1ccc(F)c(C(=O)N[C@@H](C(=O)N2CCC3(CC2)C(=O)N(C)C(=O)N3c2ccc3[nH]c(=O)oc3c2)C(C)C)c1` [Example 31, (R)-5-Ethyl-2-fluoro-N-(3-methyl-1-(3-methyl-2,4-dioxo-1-(2-oxo-2,3-dihydrobenzo[d]oxazol-6-yl)-1,3,8-triazaspiro[4.5]decan-8-yl)-1-oxobutan-2-yl)benzamide] cannot be ordered by IC50: under 500 nM for the first, under 500 nM for the second.

Going from `Cc1nc2ccc(N3C(=O)N(C)C(=O)C34CCN(C(=O)[C@H](NC(=O)c3cc(C(F)(F)F)ccc3F)C(C)C)CC4)cc2[nH]1` [Example 19, (R)-2-Fluoro-N-(3-methyl-1-(3-methyl-1-(2-methyl-1H-benzo[d]imidazol-6-yl)-2,4-dioxo-1,3,8-triazaspiro[4.5]decan-8-yl)-1-oxobutan-2-yl)-5-(trifluoromethyl)benzamide trifluoroacetic Acid Salt] to `CC(C)[C@@H](NC(=O)c1cc(C(F)(F)F)ccc1F)C(=O)N1CCC2(CC1)C(=O)N(C)C(=O)N2c1ccc2[nH]c(=O)oc2c1` [Example 28, (R)-2-Fluoro-N-(3-methyl-1-(3-methyl-2,4-dioxo-1-(2-oxo-2,3-dihydrobenzo[d]oxazol-6-yl)-1,3,8-triazaspiro[4.5]decan-8-yl)-1-oxobutan-2-yl)-5-(trifluoromethyl)benzamide], the IC50 falls from at least 1000 nM to under 500 nM.

`CC(C)[C@@H](NC(=O)c1cc(C(F)(F)F)ccc1F)C(=O)N1CCC2(CC1)C(=O)N(C)C(=O)N2c1cnc2[nH]ccc2c1` [Example 20, (R)-2-Fluoro-N-(3-methyl-1-(3-methyl-2,4-dioxo-1-(1H-pyrrolo[2,3-b]pyridin-5-yl)-1,3,8-triazaspiro[4.5]decan-8-yl)-1-oxobutan-2-yl)-5-(trifluoromethyl)benzamide] and `COc1ccc(N2C(=O)N(C)C(=O)C23CCN(C(=O)[C@H](NC(=O)c2cc(C(F)(F)F)ccc2F)C(C)C)CC3)cn1` [Example 25, (R)-2-Fluoro-N-(1-(1-(6-methoxypyridin-3-yl)-3-methyl-2,4-dioxo-1,3,8-triazaspiro[4.5]decan-8-yl)-3-methyl-1-oxobutan-2-yl)-5-(trifluoromethyl)benzamide] cannot be ordered by IC50: under 500 nM for the first, under 500 nM for the second.

First: CC(C)[C@@H](NC(=O)c1cc(C(F)(F)F)ccc1F)C(=O)N1CCC2(CC1)C(=O)N(C)C(=O)N2c1ccc2c(c1)OCCN2 [Example 21, (R)—N-(1-(1-(3,4-Dihydro-2H-benzo[b][1,4]oxazin-7-yl)-3-methyl-2,4-dioxo-1,3,8-triazaspiro[4.5]decan-8-yl)-3-methyl-1-oxobutan-2-yl)-2-fluoro-5-(trifluoromethyl)benzamide]
Second: CC(C)[C@@H](NC(=O)c1cc(C(F)(F)F)ccc1F)C(=O)N1CCC2(CC1)C(=O)N(C)C(=O)N2c1ccc2c(c1)OCC(=O)N2 [Example 30, (R)-2-Fluoro-N-(3-methyl-1-(3-methyl-2,4-dioxo-1-(3-oxo-3,4-dihydro-2H-benzo[b][1,4]oxazin-7-yl)-1,3,8-triazaspiro[4.5]decan-8-yl)-1-oxobutan-2-yl)-5-(trifluoromethyl)benzamide]
The IC50 of the first is lower: under 500 nM for the first, 500 to 1000 nM for the second. The first is the more potent here.

Compared with `CC(C)[C@@H](NC(=O)c1cc(C(F)(F)F)ccc1F)C(=O)N1CCC2(CC1)C(=O)N(C)C(=O)N2c1ccc(=O)[nH]c1` [Example 22, (R)-2-Fluoro-N-(3-methyl-1-(3-methyl-2,4-dioxo-1-(6-oxo-1,6-dihydropyridin-3-yl)-1,3,8-triazaspiro[4.5]decan-8-yl)-1-oxobutan-2-yl)-5-(trifluoromethyl)benzamide], `CC(C)[C@@H](NC(=O)c1cc(C(F)(F)F)ccc1F)C(=O)N1CCC2(CC1)C(=O)N(C)C(=O)N2c1ccc2occc2c1` [Example 27, (R)-2-Fluoro-N-(3-methyl-1-(3-methyl-2,4-dioxo-1-(5-benzofuran)-1,3,8-triazaspiro[4.5]decan-8-yl)-1-oxobutan-2-yl)-5-(trifluoromethyl)benzamide] is lower in IC50: at least 1000 nM for the first, under 500 nM for the second.

`CN1C(=O)N(c2ccc(=O)n(C)c2)C2(CCN(C(=O)[C@H](NC(=O)c3cc(C(F)(F)F)ccc3F)C3CCCC3)CC2)C1=O` [Example 24, (R)—N-(1-Cyclopentyl-2-(3-methyl-1-(1-methyl-6-oxo-1,6-dihydropyridin-3-yl)-2,4-dioxo-1,3,8-triazaspiro[4.5]decan-8-yl)-2-oxoethyl)-2-fluoro-5-(trifluoromethyl)benzamide] and `CC(C)[C@@H](NC(=O)c1cc(C(F)(F)F)ccc1F)C(=O)N1CCC2(CC1)C(=O)N(C)C(=O)N2c1ccc(OC(F)(F)F)cc1` [Example 26, (R)-2-Fluoro-N-(3-methyl-1-(3-methyl-2,4-dioxo-1-(4-(trifluoromethoxy)phenyl)-1,3,8-triazaspiro[4.5]decan-8-yl)-1-oxobutan-2-yl)-5-(trifluoromethyl)benzamide] cannot be ordered by IC50: under 500 nM for the first, under 500 nM for the second.

Source: patent publication US10233182B2, “Substituted spirocyclic inhibitors of autotaxin” (X-Rx, Inc., priority 2014, dated 2019)
